Active and inactive are the calls of the source. The calls are words filed in the database; no cut-off is given here.
Target: T1, Ubiquitin carboxyl-terminal hydrolase 7 (Homo sapiens, UniProt Q93009)
Test: Inhibition of USP7 (unknown origin) […]
Details: not given

T1 sequence (Q93009 whole entry): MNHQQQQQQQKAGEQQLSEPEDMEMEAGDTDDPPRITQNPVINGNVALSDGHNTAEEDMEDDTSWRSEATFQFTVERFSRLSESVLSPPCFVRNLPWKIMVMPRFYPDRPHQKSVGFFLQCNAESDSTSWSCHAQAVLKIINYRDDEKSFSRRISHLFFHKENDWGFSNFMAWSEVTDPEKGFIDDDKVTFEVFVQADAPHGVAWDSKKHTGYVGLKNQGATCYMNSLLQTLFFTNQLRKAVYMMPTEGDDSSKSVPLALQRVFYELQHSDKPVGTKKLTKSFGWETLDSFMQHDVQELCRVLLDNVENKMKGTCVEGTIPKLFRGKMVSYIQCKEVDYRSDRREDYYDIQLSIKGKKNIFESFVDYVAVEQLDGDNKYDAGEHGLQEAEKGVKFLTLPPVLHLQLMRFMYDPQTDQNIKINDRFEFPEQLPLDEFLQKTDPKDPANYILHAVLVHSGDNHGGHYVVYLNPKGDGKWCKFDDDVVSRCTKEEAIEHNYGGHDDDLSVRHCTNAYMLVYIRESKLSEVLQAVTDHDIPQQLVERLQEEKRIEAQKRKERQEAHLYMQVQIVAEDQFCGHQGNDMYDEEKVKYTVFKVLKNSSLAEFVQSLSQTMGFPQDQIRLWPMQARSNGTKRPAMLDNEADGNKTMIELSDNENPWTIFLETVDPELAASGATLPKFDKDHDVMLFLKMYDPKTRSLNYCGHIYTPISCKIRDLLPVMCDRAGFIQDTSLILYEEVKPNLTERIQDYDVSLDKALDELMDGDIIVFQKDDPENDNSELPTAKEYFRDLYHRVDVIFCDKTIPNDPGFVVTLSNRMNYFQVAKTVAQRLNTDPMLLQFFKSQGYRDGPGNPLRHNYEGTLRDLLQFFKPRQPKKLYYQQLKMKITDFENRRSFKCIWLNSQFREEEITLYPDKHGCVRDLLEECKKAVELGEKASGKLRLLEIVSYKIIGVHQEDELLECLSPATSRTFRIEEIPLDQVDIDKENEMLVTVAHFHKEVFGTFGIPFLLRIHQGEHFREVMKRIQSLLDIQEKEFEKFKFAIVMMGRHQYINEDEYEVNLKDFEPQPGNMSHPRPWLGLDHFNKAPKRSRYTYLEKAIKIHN

Row | SMILES | IC50 [µM]
1 | COc1ccc(N2CCN(C(=S)Nc3ccc([N+](=O)[O-])cc3)CC2)c(N)c1 | 10.5

Target: T2, Ubiquitin carboxyl-terminal hydrolase 8 (Homo sapiens, UniProt P40818)
T2 sequence (P40818 whole entry): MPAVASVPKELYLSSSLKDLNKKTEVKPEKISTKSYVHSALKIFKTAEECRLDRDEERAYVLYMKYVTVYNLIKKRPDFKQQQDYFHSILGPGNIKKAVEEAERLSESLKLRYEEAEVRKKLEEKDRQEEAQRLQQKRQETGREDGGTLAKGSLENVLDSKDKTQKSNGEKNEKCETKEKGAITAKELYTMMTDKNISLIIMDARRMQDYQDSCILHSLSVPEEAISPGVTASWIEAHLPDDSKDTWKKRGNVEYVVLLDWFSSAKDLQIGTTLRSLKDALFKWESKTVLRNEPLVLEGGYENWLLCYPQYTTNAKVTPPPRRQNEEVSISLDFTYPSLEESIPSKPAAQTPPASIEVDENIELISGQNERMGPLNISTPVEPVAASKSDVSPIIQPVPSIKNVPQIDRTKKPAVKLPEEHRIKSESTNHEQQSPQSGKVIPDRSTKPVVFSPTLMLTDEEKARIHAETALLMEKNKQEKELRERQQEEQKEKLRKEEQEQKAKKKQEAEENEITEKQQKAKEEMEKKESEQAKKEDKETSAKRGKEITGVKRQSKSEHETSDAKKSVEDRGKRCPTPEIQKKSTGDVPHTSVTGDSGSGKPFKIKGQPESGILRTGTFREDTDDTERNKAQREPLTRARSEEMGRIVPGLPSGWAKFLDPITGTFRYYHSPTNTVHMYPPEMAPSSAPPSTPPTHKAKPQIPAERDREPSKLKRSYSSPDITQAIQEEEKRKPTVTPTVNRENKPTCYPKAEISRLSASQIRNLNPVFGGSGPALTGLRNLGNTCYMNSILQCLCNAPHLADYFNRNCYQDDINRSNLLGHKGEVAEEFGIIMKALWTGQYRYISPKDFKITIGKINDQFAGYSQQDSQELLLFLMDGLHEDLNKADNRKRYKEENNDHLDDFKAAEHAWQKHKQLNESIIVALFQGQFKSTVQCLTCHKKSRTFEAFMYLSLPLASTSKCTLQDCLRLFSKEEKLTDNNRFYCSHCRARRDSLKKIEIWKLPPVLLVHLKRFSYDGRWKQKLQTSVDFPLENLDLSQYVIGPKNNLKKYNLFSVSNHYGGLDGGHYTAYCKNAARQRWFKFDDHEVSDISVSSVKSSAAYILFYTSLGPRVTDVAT
Test: (§1) Inhibition of N-terminal His6-tagged USP8 (unknown origin) expressed in Escherichia coli BL21 (DE3) cells using ubiquitin-rhodamine -110 as substrate incubated for 15 mins followed by substrate addition measured after 1 hrs by ubiquitin-rhodamine-110 based fluorometric assay
Details: not given

Row | SMILES | IC50 [µM]
2 | COc1ccc(N2CCN(C(=S)Nc3ccc([N+](=O)[O-])cc3)CC2)c(N)c1 | 2.6

System: MCF7
Test: Antiproliferative activity against human MCF7 cells assessed as reduction in colony formation at 3 uM incubated for 7 days by crystal violet staining based colony formation assay
Format: functional, cell-based
Details: time 7.0 day

Row | SMILES | Activity
3 | CCO/N=C1/c2ccccc2-c2nc(C#N)c(C#N)nc21 | Active

Target: T1, Ubiquitin carboxyl-terminal hydrolase 7
Test: Inhibition of human full length USP7 overexpressed in baculovirus-infected insect cells using ubiquitin-C-terminal 7-amido-4-methylcoumarin as substrate by fluorescence spectroscopy
Details: not given

Row | SMILES | IC50 [µM]
4 | N#Cc1cc2c(cc1C#N)-c1ccccc1C2=O | 3.5

Target: NAD(P)H dehydrogenase [quinone] 1 (Homo sapiens) (UniProt P15559)
Test: Substrate activity at NQO1 (unknown origin) assessed as reduction in NADPH level measured per umol of NQO1 at 20 uM in presence of NADPH by absorbance based analysis
Details: not given

Chain of NAD(P)H dehydrogenase [quinone] 1 (Homo sapiens) (P15559 whole entry): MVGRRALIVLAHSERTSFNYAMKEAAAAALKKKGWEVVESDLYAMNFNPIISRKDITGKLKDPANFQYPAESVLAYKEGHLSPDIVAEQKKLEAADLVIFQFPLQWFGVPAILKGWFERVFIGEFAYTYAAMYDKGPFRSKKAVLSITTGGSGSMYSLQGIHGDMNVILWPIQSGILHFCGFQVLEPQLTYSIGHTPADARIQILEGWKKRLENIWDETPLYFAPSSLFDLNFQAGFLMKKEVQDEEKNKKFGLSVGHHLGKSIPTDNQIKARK

Row | SMILES | Activity [µmol/min]
5 | CCO/N=C1/c2ccccc2-c2nc(C#N)c(C#N)nc21 | 1300

Target: T2, Ubiquitin carboxyl-terminal hydrolase 8
Test: Binding affinity to N-terminal His6-tagged USP8 catalytic domain (734 to 1110 residues) (unknown origin) expressed in Escherichia coli BL21 (DE3) cells by surface plasmon resonance method
Details: not given

Row | SMILES | Kd [µM]
6 | COc1c(O)cc(O)c2c(=O)cc(-c3ccc(N4CCCNCC4)cc3)oc12 | 43.6

Target: T2, Ubiquitin carboxyl-terminal hydrolase 8
Test: as §1, with “origin) catalytic domain (734 to 1110 residues)” for “origin)”, “cells assessed as deubiquitinating activity” for “cells”, “30” for “15”, “30 mins” for “1 hrs”
Details: not given

Row | SMILES | IC50 [µM]
7 | O=c1cc(-c2ccc(N3CCCNCC3)cc2)oc2c(OC3CCCCC3)c(O)cc(O)c12 | 16.2
8 | COc1c(O)cc(O)c2c(=O)cc(-c3ccc(N4CCN(C=O)CC4)cc3)oc12 | 2.2
9 | CC(C)Oc1c(O)cc(O)c2c(=O)cc(-c3ccc(N4CCCNCC4)cc3)oc12 | 24.5
10 | COc1c(O)cc(O)c2c(=O)cc(-c3ccc(N(CCO)CCO)cc3)oc12 | 43.7
11 | COc1c(O)cc(O)c2c(=O)cc(-c3ccc(N4CCCNCC4)cc3)oc12 | 31.6
12 | Cc1n[nH]c(C)c1Oc1c(O)cc(O)c2c(=O)cc(-c3ccc(N4CCN(CCO)CC4)cc3)oc12 | 23.5
13 | Cc1n[nH]c(C)c1Oc1c(O)cc(O)c2c(=O)cc(-c3ccc(N4CCN(C(=O)c5ccco5)CC4)cc3)oc12 | 5.1
14 | COc1c(O)cc(O)c2c(=O)cc(-c3ccc(N4CCC(O)CC4)cc3)oc12 | 36
15 | COc1c(O)cc(O)c2c(=O)cc(-c3ccc(N4CCN(C)CC4)cc3)oc12 | 16.5
16 | CCN1CCN(c2ccc(-c3cc(=O)c4c(O)cc(O)c(Oc5c(C)n[nH]c5C)c4o3)cc2)CC1 | 15.5
17 | COc1c(O)cc(O)c2c(=O)cc(-c3ccc(N4CCCC4)cc3)oc12 | 16.2
18 | Cc1n[nH]c(C)c1Oc1c(O)cc(O)c2c(=O)cc(-c3ccc(N4CCN(c5ccccc5)CC4)cc3)oc12 | 3.5
19 | COc1c(O)cc(O)c2c(=O)cc(-c3ccc(N4CCOCC4)cc3)oc12 | 18.3
20 | Cc1n[nH]c(C)c1Oc1c(O)cc(O)c2c(=O)cc(-c3ccc(N4CCCNCC4)cc3)oc12 | 17.6
21 | COc1c(O)cc(O)c2c(=O)cc(-c3ccc(N4CCN(CCO)CC4)cc3)oc12 | 45.2
22 | Cc1n[nH]c(C)c1Oc1c(O)cc(O)c2c(=O)cc(-c3ccc(N4CCN(C(C)C)CC4)cc3)oc12 | 16.3

Target: T2, Ubiquitin carboxyl-terminal hydrolase 8
Test: Inhibition of human full length USP8 overexpressed in baculovirus-infected insect cells using ubiquitin-C-terminal 7-amido-4-methylcoumarin as substrate by fluorescence spectroscopy
Details: not given

Row | SMILES | IC50 [µM]
23 | C=CCO/N=C1\c2ccccc2-c2nc(C#N)c(C#N)nc21 | 0.56
24 | N#Cc1cc2c(cc1C#N)-c1ccccc1C2=O | 0.29
25 | N#Cc1nc2c(nc1C#N)-c1ccccc1/C2=N\OCc1ccccc1 | 0.85
